Results reported in US20100233131A1 (PUSAN NATIONAL UNIVERSITY INDUSTRY-UNIVERSITY COOP, priority 2008, published 2010).

How the values were obtained:
Assay type in all cases: cell-based, human
[1] = test system: ATSCs; assay: Osteogenic and adipogenic differentiation in vitro
Protocol: To estimate the differentiation potential of selenium-treated ATSCs, osteogenic and adipogenic differentiation potential was evaluated.
In the present embodiment, it was confirmed that the selenium-treated ATSCs accumulated significant amounts of calcium and lipid droplets after only one week of osteogenetic and adipogenetic induction in vitro (FIG. 17). Differences in formation of bone nodules and lipid droplets between the control and selenium-treated ATSCs were estimated by calculating the number of stained bone nodules and lipid droplets in 25 randomly selected fields (regions).

[2] = test system: ATSCs; assay: Cell scraped wound model assay
Protocol: Cells were seeded into 60 mm culture dishes, and a straight line was lightly carved across the center, outer and bottom surface of each dish with a scalpel. The ATSCs were incubated overnight in a serum-free medium, scraped from one side of the marked line, and washed three times with a medium to remove loose or dead cells. […] The control dish was also scratched in the same manner as described above, and incubated in a selenium-free medium. Cells migrated across the marked reference line were photographed under a phase contrast microscope.

[3] = test system: ATSCs; assay: Western blot of proliferation-related signaling proteins; settings: time-dependent
[4] = test system: ATSCs; assay: Colony forming unit (CFU) assay; settings: 5 ng/ml selenium 3 days, colonies counted after 15 days, vs control ATSCs
Protocol: Also, the proliferation efficiency of colony forming units (CFU) in the selenium-treated cells was evaluated. […] First, the ATSCs were seeded in 10 cm dishes at a density of 5×10^5 and cultured in a 2% FBS-containing α-MEM medium for 8 hours at 37° C. in a CO2 incubator. […] After 15 days, the cells were fixed with 4% paraformaldehyde (PFA) for 30 minutes at room temperature and stained with 0.1% toluidine blue dissolved in 1% PFA. The proliferation efficiency of the CFU was evaluated via visual colony counts.

[5] = test system: ATSCs; assay: ROS generation (DCF fluorescence)
[6] = test system: ATSCs; assay: Molecular marker expression by real time RT-PCR and Western blot
Source text: The expression of molecular markers in both the control ATSCs and the selenium-treated cells was verified via real time RT-PCR and Western blot analysis.

[7] = test system: ATSCs; assay: Prolonged culture / proliferation lifespan
Source text: During prolonged culture periods, the population of control ATSCs underwent a progressive reduction in proliferation potential. The cells finally underwent senescence after 21 to 23 passages (90 to 100 days in culture). At the end of the proliferation lifespan, the cells were flattered and larger in morphology in a monolayer similar to that described for senescent fibroblasts. […] The rate of proliferation of selenium-treated ATSCs resembled that of the control ATSCs.

[8] = test system: Rex1, Nanog and Oct4 promoter regions; assay: Bisulfite sequencing of CpG methylation on stemness gene promoter regions
Protocol: Also, a bisullipide sequencing analysis was performed in order to establish 5′-3′ CpG methylation profiles across a proximal promoter, a proximal enhancer and an early transcription start site (TSS) of each gene.
Genomic DNA of ATSCs was purified by phenol/chloroform/isoamylalcohol extraction, and chloroform extraction once, and then was precipitated with ethanol. The DNA was dissolved in distilled water. Bisullipide conversion was performed using EZ DNA Methylation-Gold Kit (Zymo Research, USA), as described by a manufacturer. That is, unmethylated cytosines on the DNA were converted into uracils via the heat-denaturation of DNA with specifically designed CT conversion reagent. The DNA was then desulphonated and subsequently cleaned and eluted. The bisulfite-modified DNA was then immediately used for PCR or stored at −20° C. or below. The converted DNA was amplified via PCR using primers designed with MethPrimer (http://www.urogene.org/methprimer). The PRC was conducted in a MyGenie 96 Gradient Thermal Block (Bioneer, Daejeon, South Korea) according to the following protocol, including 95° C. for 15 minutes, 40 cycles of 95° C. for 20 seconds, 43 to 58° C. for 40 seconds, and 72° C. for 30 seconds, elongation at 72° C. for 10 minutes and soaking at 4° C. After electrophoresis on 1.5% agarose gel, the remaining PCR products were cloned into bacteria (DH5α) by the pGEM T-Easy Vector System I (Promega, Madison, Wis., USA). The DNA extracted from bacterial clones were analyzed via sequencing with M13 reverse primers using the ABI 3730XL capillary DNA sequencer (Applied Biosystems, Foster City, Calif., USA), and represented as rows of circles, each circle denoting the methylation status of CpG.

[9] = test system: ATSCs; assay: Neural differentiation in vitro
Source text: In an attempt to estimate differentiation potential of selenium-treated ATSCs into neural cells in vitro, low levels of Nestin protein expression were detected in the selenium-treated ATSCs after the induction of differentiation (FIG. 19). After neural differentiation, the selenium-treated ATSCs expressed higher levels of Tuj, GFAP, MAP2ab and NF160 than the control ATSCs (FIG. 19). […] It means that there is a difference in differential potential between the control ATSCs and the selenium-treated ATSCs.

[10] = test system: ATSCs; assay: Differentiation into insulin-producing cells; settings: after beta-cell-like differentiation, vs differentiated control ATSCs
Protocol: Moreover, for differentiation of cells similar to beta cells, cells were cultured in “N2 media-NA” containing DMEM/F12 (Gibco-Invitrogen) supplemented with 10 mM nicotinamide, ITS (1:50), B27 (1:50; Invitrogen) and 15% FBS. After 24-hour culture, the medium was changed with a high glucose (3500 mg/L)-containing differentiation medium for 2 weeks. After the induction of differentiation, double immunocytochemistry was conducted using insulin (1:800; Sigma) and c-peptide (1:100; Milipore) antibodies.

[11] = test system: ATSCs; assay: Telomerase activity of selenium-treated ATSCs; settings: 5 ng/ml selenium for 3 days
Source text: An increase in telomerase activity is a characteristic of a stem cell, and a decrease in telomerase activity indicates differentiation of the cells.

[12] = test system: ATSCs; assay: Oligonucleotide microarray analysis of gene expression; settings: vs control ATSCs
Protocol: To confirm the pattern of gene expression, oligonucleotide microarray analysis was performed.

Compound: O=[Se]([O-])[O-].[Na+].[Na+] [selenium, sodium selenite]
- lipid droplets vs control ATSCs ([1]; adipogenic induction, eluted dye quantitative assay): six-fold more
- level of osteonectin, RXR and osteopontin mRNA ([1]; during osteogenesis): significant increases
- levels of AP and PPAR-γ mRNAs ([1]; in adipogenesis): significant increases
- bone nodules vs control ATSCs ([1]; osteogenic induction, eluted dye quantitative assay): Five-fold more
- migration of ATSCs across the reference line ([2]; 5 ng/ml selenium, 24 hours, vs control ATSCs): three times higher
- expression of migration-associated factors MMP1, MMP3, SDF1, VEGF and CXCR4 ([2]; after selenium treatment): increases in expression
- activation of PI3K and downstream mediators (p-Rac, p-c-Raf, p-MEK, p-ERK, p-Stat3, p-Akt) ([3]; 0, 3, 6 and 12 hours): significant activation
- concentration of apoptosis-related protein p-SAPK/JNK [3]: reduced
- cell proliferation increase by CFU levels [4]: at least 1.8 times
- increased fluorescence intensity of DCF (ROS generation) [5]: compensated
- acetylation of Histones 3 and 4 [6]: attenuated
- expression of GFAP, Tuj, p53 and p21 [6]: downregulation
- expression of Nestin and c-Myc [6]: induced expression
- Rex1 expression ([6]; vs control ATSCs): significantly increased
- expression of stemness and functional genes (Rex1, Nanog, Oct4, Sox2, Runx3, CDK1, CDK2, Nestin, VEGF, FGFR1) ([6]; vs control ATSCs): overexpression
- passages of continuous growth [7]: > 21 passages
- duration of continuous growth ([7]; control ATSCs senescent after 21 to 23 passages): more than 3 months
- Nanog promoter methylation ([8]; third region (-86 to +66) to the TSS): effectively demethylated
- Oct4 promoter CpG methylation ([8]; third region, control ATSCs 65.7%): 30.3%
- Rex1 region CpG methylation ([8]; third region, control ATSCs 72.2%): 42.2%
- acetyl-histones 3 and 4 (Western blot) ([9]; after neural differentiation): overexpressed
- expression of Tuj, GFAP, MAP2ab and NF160 ([9]; after neural differentiation, vs control ATSCs): higher levels
- neural differentiation (MAP2ab/total cells) ([9]; control ATSCs 2.4%): 9.0 % of total cells
- insulin secretion with C-peptide [10]: secreted a significant amount of insulin
- increase in telomerase activity [11]: 2 fold
- upregulation of cell proliferation-associated genes [12]: 42%
